Data taken from publication PMC9506414, “Novel 2,6,9-Trisubstituted Purines as Potent CDK Inhibitors Alleviating Trastuzumab-Resistance of HER2-Positive Breast Cancers” (Pharmaceuticals, 2022).
Like-named read-outs stand apart in the source and are kept apart here.

Tests used:
[1] = system: HCC1954 cells; assay: Antiproliferation assay (Cell-titer Glo, 72 h); format: cell-based; details: Homo sapiens, 72 h, means and standard deviations from three independent assays, read-out: HCC1954 (GI50/μM)
Experimental: (§1) Breast-cancer cell lines (SK-Br3, HCC-1954) were purchased from Korea Cell Line Bank (Seoul, Korea) and were cultured in RPMI medium supplemented with 10% FBS and penicillin/streptomycin (Welgene, Seoul, Korea). All cell lines were maintained at 37 °C in a cell incubator in the presence of 5% CO2.
(§2) Breast-cancer cells in culture media (100 μL volume/well, 5000 SK-Br3 cells/well, 1000 HCC-1954 cells/well) were seeded in tissue culture-treated 96-well plates, and incubated at a cell incubator for 24 h. Serially diluted compounds (3-fold, 10 point from 10 mM, duplicated) were pre-plated and 500 nL of compound solutions were pin-transferred to the cells in the assay plates using pintool system (JANUS liquid handler, PerkinElmer, Waltham, MA, USA) and incubated at a cell incubator for 72 h. Cell-titer Glo^TM reagent (50 μL, Promega Corp., Madison, WI, USA) was added to each well, and the luminescence signal was read using an Envision^TM plate reader (PerkinElmer, Waltham, MA, USA). The titration curve fitting and IC50 values were generated using Prism 7.0 s/w (GraphPad, San Diego, CA, USA).

[2] = system: SK-Br3 cells; assay: Antiproliferation assay (Cell-titer Glo, 72 h); format: cell-based; details: Homo sapiens, SK-BR-3; 72 h; means and standard deviations from three independent assays; read-out: SK-Br3 (GI50/μM)
Experimental: as §1, §2

[3] = biological target: CDK12/CyclinK (Homo sapiens, UniProt Q9NYV4); assay: In vitro CDK12/cyclinK kinase assay; format: biochemical; parameters: purchased Reaction Biology Corp. (CRO that ran the assay)
Sequence of CDK12/CyclinK (Q9NYV4 whole entry): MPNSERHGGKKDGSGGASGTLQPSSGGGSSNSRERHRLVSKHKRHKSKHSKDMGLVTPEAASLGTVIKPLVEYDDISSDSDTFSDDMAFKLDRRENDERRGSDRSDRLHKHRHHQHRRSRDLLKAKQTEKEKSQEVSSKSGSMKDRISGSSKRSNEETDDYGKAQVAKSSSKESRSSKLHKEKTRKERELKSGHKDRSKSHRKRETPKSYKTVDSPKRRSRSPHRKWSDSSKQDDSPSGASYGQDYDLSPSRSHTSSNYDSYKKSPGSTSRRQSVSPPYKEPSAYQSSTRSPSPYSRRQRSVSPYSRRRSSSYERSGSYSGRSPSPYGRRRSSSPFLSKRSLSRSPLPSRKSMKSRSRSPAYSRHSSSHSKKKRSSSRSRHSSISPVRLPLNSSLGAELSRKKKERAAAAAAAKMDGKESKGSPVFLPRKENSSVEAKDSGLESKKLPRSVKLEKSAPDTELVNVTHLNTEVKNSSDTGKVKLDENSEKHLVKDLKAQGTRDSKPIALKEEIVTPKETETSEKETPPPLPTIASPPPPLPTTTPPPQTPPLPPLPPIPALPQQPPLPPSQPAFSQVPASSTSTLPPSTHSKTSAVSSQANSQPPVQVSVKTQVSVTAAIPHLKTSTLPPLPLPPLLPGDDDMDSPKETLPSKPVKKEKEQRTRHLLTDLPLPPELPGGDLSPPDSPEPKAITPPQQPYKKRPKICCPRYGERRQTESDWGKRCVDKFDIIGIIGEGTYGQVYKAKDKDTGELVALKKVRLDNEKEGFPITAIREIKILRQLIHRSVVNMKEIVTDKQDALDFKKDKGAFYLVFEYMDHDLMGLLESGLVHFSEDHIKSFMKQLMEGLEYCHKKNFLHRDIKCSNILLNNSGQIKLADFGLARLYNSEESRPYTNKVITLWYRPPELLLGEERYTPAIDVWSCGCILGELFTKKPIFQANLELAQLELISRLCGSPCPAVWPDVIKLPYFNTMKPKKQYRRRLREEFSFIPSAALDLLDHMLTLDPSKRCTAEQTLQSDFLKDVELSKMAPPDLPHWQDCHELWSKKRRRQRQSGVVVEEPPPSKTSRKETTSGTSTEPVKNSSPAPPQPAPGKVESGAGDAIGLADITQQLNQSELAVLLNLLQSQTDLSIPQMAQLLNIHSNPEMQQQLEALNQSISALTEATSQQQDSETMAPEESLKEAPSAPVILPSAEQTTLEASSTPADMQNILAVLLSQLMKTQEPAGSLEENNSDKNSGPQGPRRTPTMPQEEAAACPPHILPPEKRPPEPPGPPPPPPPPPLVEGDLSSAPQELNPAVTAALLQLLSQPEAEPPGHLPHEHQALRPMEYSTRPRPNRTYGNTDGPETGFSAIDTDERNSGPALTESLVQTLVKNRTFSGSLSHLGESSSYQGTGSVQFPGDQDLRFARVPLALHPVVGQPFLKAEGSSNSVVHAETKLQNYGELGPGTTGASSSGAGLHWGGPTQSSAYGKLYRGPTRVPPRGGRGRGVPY
Sequence of CDK12/CyclinK (O75909 whole entry partner): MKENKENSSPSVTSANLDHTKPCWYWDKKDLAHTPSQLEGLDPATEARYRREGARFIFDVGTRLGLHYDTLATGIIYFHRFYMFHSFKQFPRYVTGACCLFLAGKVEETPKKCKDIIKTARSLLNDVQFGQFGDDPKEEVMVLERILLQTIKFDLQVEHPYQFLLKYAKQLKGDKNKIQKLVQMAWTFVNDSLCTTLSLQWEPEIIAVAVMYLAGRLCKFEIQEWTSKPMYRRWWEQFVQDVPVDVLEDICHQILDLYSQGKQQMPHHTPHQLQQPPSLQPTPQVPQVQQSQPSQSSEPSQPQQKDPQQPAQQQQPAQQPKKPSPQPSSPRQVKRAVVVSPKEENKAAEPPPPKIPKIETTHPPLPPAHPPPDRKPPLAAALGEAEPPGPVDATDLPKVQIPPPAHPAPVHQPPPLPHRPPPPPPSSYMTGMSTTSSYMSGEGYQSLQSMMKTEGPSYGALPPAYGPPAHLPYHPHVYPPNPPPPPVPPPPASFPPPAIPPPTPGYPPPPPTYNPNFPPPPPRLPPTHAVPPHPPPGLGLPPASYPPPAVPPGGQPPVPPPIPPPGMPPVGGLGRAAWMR
Experimental: In vitro CDK12/cyclinK assays for all compounds and in vitro kinome-wide inhibition profiling of 30d at 10 μM were performed by a CRO company (Reaction Biology Corp., San Diego, CA, USA).

[4] = Tables 1-4, read-out: CDK12/CyclinK (IC50/μM)

Row | GI50 [1] [µM] | GI50 [2] [µM] | IC50 ([3]; Table 5, means and standard deviations from three independent assays, read-out: CDK12/CyclinK (IC50/μM)) [µM] | IC50 [3, 4] [µM] | IC50 ([3]; read-out: CDK12/cyclinK IC50) [µM] | Structure (SMILES)
1 | 0.069 ± 0.006 | 0.094 ± 0.012 | 0.0086 ± 0.0017 |  |  | CC(C)n1cnc2c(NCc3nc4ccc(F)c(F)c4[nH]3)nc(N3CCCC[C@H]3CCO)nc21 [Compound 2, reference compound]
2 | 13.6 ± 1.16 | 24.6 ± 4.99 |  | 1.11 |  | Cc1ccc(-c2ccc(CNc3nc(-c4cccnc4)nc4c3ncn4C(C)C)nc2)cn1 [Compound 17c, 9-Isopropyl-N-((6′-methyl-[3,3′-bipyridin]-6-yl)methyl)-2-(pyridin-3-yl)-9H-purin-6-amine]
3 | 0.247 ± 0.03 | 0.41 ± 0.034 |  | 0.221 |  | CC(C)n1cnc2c(NCc3ccc(-c4cccnc4)nc3)nc(-c3cccnc3)nc21 [Compound 17f, N-([2,3′-Bipyridin]-5-ylmethyl)-9-isopropyl-2-(pyridin-3-yl)-9H-purin-6-amine]
4 | 0.494 ± 0.048 | 0.804 ± 0.095 |  | 0.153 |  | CC(C)n1cnc2c(NCc3ccc(-c4ccncc4)nc3)nc(-c3cccnc3)nc21 [Compound 17g, N-([2,4′-Bipyridin]-5-ylmethyl)-9-isopropyl-2-(pyridin-3-yl)-9H-purin-6-amine]
5 | 1.12 ± 0.26 | 1.69 ± 0.243 |  | 0.623 |  | CC(C)n1cnc2c(NCc3ccc(-c4cccnc4)nc3)nc(-c3ccccc3)nc21 [Compound 18a, N-([2,3′-Bipyridin]-5-ylmethyl)-9-isopropyl-2-phenyl-9H-purin-6-amine]
6 | 1.14 ± 0.304 | 1.62 ± 0.248 |  | 0.504 |  | CC(C)n1cnc2c(NCc3ccc(-c4cccnc4)nc3)nc(-c3cccc(C(N)=O)c3)nc21 [Compound 18b, 3-(6-(([2,3′-Bipyridin]-5-ylmethyl)amino)-9-isopropyl-9H-purin-2-yl)benzamide]
7 | 3.14 ± 0.201 | 3.71 ± 0.45 |  | 0.484 |  | CC(C)n1cnc2c(NCc3ccc(-c4cccnc4)nc3)nc(-c3ccc(C(N)=O)cc3)nc21 [Compound 18c, 4-(6-(([2,3′-Bipyridin]-5-ylmethyl)amino)-9-isopropyl-9H-purin-2-yl)benzamide]
8 | 1.35 ± 0.243 | 1.5 ± 0.112 |  | 0.155 |  | CC(C)n1cnc2c(NCc3ccc(-c4cccnc4)nc3)nc(-c3ccc4[nH]ccc4c3)nc21 [Compound 18d, N-([2,3′-Bipyridin]-5-ylmethyl)-2-(1H-indol-5-yl)-9-isopropyl-9H-purin-6-amine]
9 | 0.399 ± 0.051 | 0.608 ± 0.115 |  | 0.179 |  | CC(C)n1cnc2c(NCc3ccc(-c4cccnc4)nc3)nc(-c3ccc4cn[nH]c4c3)nc21 [Compound 18e, N-([2,3′-Bipyridin]-5-ylmethyl)-2-(1H-indazol-6-yl)-9-isopropyl-9H-purin-6-amine]
10 | 1.86 ± 0.148 | 2.58 ± 0.167 |  | 0.104 |  | CC(C)n1cnc2c(NCc3ccc(-c4cccnc4)nc3)nc(-c3ccc4[nH]ncc4c3)nc21 [Compound 18f, N-([2,3′-Bipyridin]-5-ylmethyl)-2-(1H-indazol-5-yl)-9-isopropyl-9H-purin-6-amine]
11 | 4.23 ± 0.214 | 3.71 ± 0.557 |  | 0.486 |  | CC(C)n1cnc2c(NCc3ccc(-c4cccnc4)nc3)nc(-c3cnc4ccccc4c3)nc21 [Compound 18g, N-([2,3′-Bipyridin]-5-ylmethyl)-9-isopropyl-2-(quinolin-3-yl)-9H-purin-6-amine]
12 | 0.942 ± 0.125 | 1.27 ± 0.33 |  | 0.09 |  | Cc1ccc(-c2nc(NCc3ccc(-c4cccnc4)nc3)c3ncn(C(C)C)c3n2)cn1 [Compound 18h, N-([2,3′-Bipyridin]-5-ylmethyl)-9-isopropyl-2-(6-methylpyridin-3-yl)-9H-purin-6-amine]
13 | 0.278 ± 0.007 | 0.376 ± 0.067 |  | 0.065 | < 0.1 | CC(C)n1cnc2c(NCc3ccc(-c4cccnc4)nc3)nc(-c3ccc(N)nc3)nc21 [Compound 18i, N-([2,3′-Bipyridin]-5-ylmethyl)-2-(6-aminopyridin-3-yl)-9-isopropyl-9H-purin-6-amine]
14 | 0.354 ± 0.06 | 0.71 ± 0.024 |  | 0.094 | < 0.1 | CC(C)n1cnc2c(NCc3ccc(-c4cccnc4)nc3)nc(-c3ccnc(N)c3)nc21 [Compound 18j, N-([2,3′-Bipyridin]-5-ylmethyl)-2-(2-aminopyridin-4-yl)-9-isopropyl-9H-purin-6-amine]
15 | 0.31 ± 0.041 | 0.318 ± 0.149 |  | 0.051 | < 0.1 | CC(C)n1cnc2c(NCc3ccc(-c4cccnc4)nc3)nc(-c3cncnc3)nc21 [Compound 18k, N-([2,3′-Bipyridin]-5-ylmethyl)-9-isopropyl-2-(pyrimidin-5-yl)-9H-purin-6-amine]
16 | 0.162 ± 0.011 | 0.242 ± 0.042 |  | 0.087 | < 0.1 | CC(C)n1cnc2c(NCc3ccc(-c4cccnc4)nc3)nc(-c3cnc(N)nc3)nc21 [Compound 18l, N-([2,3′-Bipyridin]-5-ylmethyl)-2-(2-aminopyrimidin-5-yl)-9-isopropyl-9H-purin-6-amine]
17 | 1.13 ± 0.05 | 1.72 ± 0.336 |  | 0.501 |  | CC(C)n1cnc2c(NCc3ccc(-c4cccnc4)nc3)nc(-c3ccn[nH]3)nc21 [Compound 18m, N-([2,3′-Bipyridin]-5-ylmethyl)-9-isopropyl-2-(1H-pyrazol-5-yl)-9H-purin-6-amine]
18 | 1.17 ± 0.027 | 1.99 ± 0.12 |  | 1.43 |  | CC(C)n1cnc2c(NCc3ccc(-c4cccnc4)nc3)nc(-c3cn[nH]c3)nc21 [Compound 18n, N-([2,3′-Bipyridin]-5-ylmethyl)-9-isopropyl-2-(1H-pyrazol-4-yl)-9H-purin-6-amine]
19 | 2.63 ± 0.448 | 2.61 ± 0.899 |  | 0.619 |  | CC(C)n1cnc2c(NCc3ccc(-c4cccnc4)nc3)nc(-c3ccccc3N)nc21 [Compound 19a, N-([2,3′-Bipyridin]-5-ylmethyl)-2-(2-aminophenyl)-9-isopropyl-9H-purin-6-amine]
20 | 0.341 ± 0.059 | 0.614 ± 0.055 |  | 0.17 |  | CC(C)n1cnc2c(NCc3ccc(-c4cccnc4)nc3)nc(-c3cccc(N)c3)nc21 [Compound 19b, N-([2,3′-Bipyridin]-5-ylmethyl)-2-(3-aminophenyl)-9-isopropyl-9H-purin-6-amine]
21 | 0.497 ± 0.088 | 0.795 ± 0.063 |  | 0.15 |  | CC(C)n1cnc2c(NCc3ccc(-c4cccnc4)nc3)nc(-c3ccc(N)cc3)nc21 [Compound 19c, N-([2,3′-Bipyridin]-5-ylmethyl)-2-(4-aminophenyl)-9-isopropyl-9H-purin-6-amine]
22 | 1.56 ± 0.116 | 2.3 ± 0.318 |  | 0.799 |  | CC(C)n1cnc2c(NCc3ccc(-c4cccnc4)nc3)nc(-c3ccccc3NCCO)nc21 [Compound 20a, 2-((2-(6-(([2,3′-Bipyridin]-5-ylmethyl)amino)-9-isopropyl-9H-purin-2-yl)phenyl)amino)ethan-1-ol]
23 | 6.05 ± 0.351 | 11.2 ± 1.12 |  | 3.01 |  | CC(C)n1cnc2c(NCc3ccc(-c4cccnc4)nc3)nc(-c3ccccc3NCCCO)nc21 [Compound 20b, 3-((2-(6-(([2,3′-Bipyridin]-5-ylmethyl)amino)-9-isopropyl-9H-purin-2-yl)phenyl)amino)propan-1-ol]
24 | 0.502 ± 0.025 | 0.732 ± 0.177 |  | 0.257 |  | CC(C)n1cnc2c(NCc3ccc(-c4cccnc4)nc3)nc(-c3cccc(NCCCO)c3)nc21 [Compound 20c, 3-((3-(6-(([2,3′-Bipyridin]-5-ylmethyl)amino)-9-isopropyl-9H-purin-2-yl)phenyl)amino)propan-1-ol]
25 | 0.907 ± 0.068 | 1.09 ± 0.127 |  | 0.499 |  | CC(C)n1cnc2c(NCc3ccc(-c4cccnc4)nc3)nc(-c3ccc(NCCCO)cc3)nc21 [Compound 20d, 3-((4-(6-(([2,3′-Bipyridin]-5-ylmethyl)amino)-9-isopropyl-9H-purin-2-yl)phenyl)amino)propan-1-ol]
26 | 1.33 ± 0.393 | 1.7 ± 0.165 |  | 0.147 |  | CC(C)n1cnc2c(NCc3ccc(-c4cccnc4)nc3)nc(-c3ccc(F)nc3)nc21 [Compound 21a, N-([2,3′-Bipyridin]-5-ylmethyl)-2-(6-fluoropyridin-3-yl)-9-isopropyl-9H-purin-6-amine]
27 | 1.27 ± 0.021 | 1.68 ± 0.267 |  | 0.164 |  | CC(C)n1cnc2c(NCc3ccc(-c4cccnc4)nc3)nc(-c3ccnc(F)c3)nc21 [Compound 21b, N-([2,3′-Bipyridin]-5-ylmethyl)-2-(2-fluoropyridin-4-yl)-9-isopropyl-9H-purin-6-amine]
28 | 44.4 ± 2.46 | > 100 |  |  |  | c1cncc(-c2ccc(CNc3nc(-c4cccnc4)nc4c3ncn4C3CCOCC3)cn2)c1 [Compound 28c, N-([2,3′-Bipyridin]-5-ylmethyl)-2-(pyridin-3-yl)-9-(tetrahydro-2H-pyran-4-yl)-9H-purin-6-amine]
29 | 0.083 ± 0.011 | 0.101 ± 0.014 |  |  |  | CC[C@H](CO)Nc1nc(NCc2ccc(-c3ccccn3)cc2)c2ncn(C(C)C)c2n1 [R-CR8 (9), reference compound]
